Each structure is given as a SMILES string. pEC50: −log10 of the molar value.

The target in this assay is T1, Human M4 receptors (Homo sapiens, UniProt P08173).
T1 construct: expressed in transfected cells; host or cells: HEK293 cells with Promega GloSensor cAMP technology, stably expressing hM4
T1 sequence (P08173 1-479): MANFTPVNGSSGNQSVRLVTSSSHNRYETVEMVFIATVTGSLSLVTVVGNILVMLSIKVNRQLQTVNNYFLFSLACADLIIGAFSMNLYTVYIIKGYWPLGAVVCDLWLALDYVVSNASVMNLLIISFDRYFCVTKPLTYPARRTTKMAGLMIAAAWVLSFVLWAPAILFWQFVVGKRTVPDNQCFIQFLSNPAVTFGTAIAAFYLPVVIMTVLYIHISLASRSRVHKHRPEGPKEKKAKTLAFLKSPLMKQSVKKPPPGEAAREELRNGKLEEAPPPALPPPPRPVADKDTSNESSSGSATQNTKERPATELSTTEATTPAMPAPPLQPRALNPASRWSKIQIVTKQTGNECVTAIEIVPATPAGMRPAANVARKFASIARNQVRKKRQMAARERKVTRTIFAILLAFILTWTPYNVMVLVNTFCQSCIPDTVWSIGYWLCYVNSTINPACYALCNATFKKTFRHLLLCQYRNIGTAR
The experiment in a line: M4 PAM cAMP assay (GloSensor). It counts as cell-based. The conditions noted are these: for Emax: HEK293, read-out: M4 glosensor EC50 Mean Asymptote Maximum (%); for pEC50: HEK293 GloSensor cells expressing hM4, with EC20 acetylcholine and isoproterenol, geometric mean of 2-4 determinations unless otherwise indicated. Here is the method:
The M4 PAM binding affinity for the compounds of the present invention was determined utilizing the following biological assay(s):
The M4 cAMP assay was designed to determine the potency and efficacy of muscarinic positive allosteric modulators (PAMs). Human M4 receptors were stably expressed in Human embryonic kidney (HEK293) cells expressed with the Promega GloSensor™ cAMP technology.
HEK293 GloSensor cells expressing hM4 cells were cultured in growth media containing DMEM with 10% FBS, 1% Penicillin/Streptomycin, 500 μg/mL G418, 200 μg/mL Hygomycin B, and 1% Glutamax. […] Plates were incubated at 37 degrees C. and 5% CO2 for use after 24 hours.
Compound Preparation for Agonist Screen:
Each compound was tested at 10 concentrations in duplicate per experiment. Compound plates are spotted with 0.2 μL/well agonist at 400 times the final assay concentration. Positive and negative controls for the compound alone agonist response was 10 μM acetylcholine (Sigma #A2661) and DMSO, respectively. EC20 of acetylcholine was also used to define PAM activities.
Promega GloSensor™ reagent (Promega #E1291) had previously been aliquotted. […] Stock solution was mixed. Culture media in cell plates was discarded, then replaced with 40 μL/well pre-warmed equilibration media, then incubated in the dark at room temperature for 2 hours. During the incubation, stimulation media containing agonist and EC20 acetylcholine was prepared. […] Compounds are now 5 times the final assay concentration. The plate was mixed using a plate agitator. At the end of the 2 hour GloSensor™ incubation, add 10 μL of the CO2-independent media containing agonist, EC20 acetylcholine and isoproterenol to the cell plate. Cell plate was then incubated for 10 minutes at room temperature, and then read using an EnVision plate reader (Perkin Elmer).
Data was exported from the EnVision plate reader. The percent effect for each well was determined using the mean values for the positive and negative controls on each plate for each read, specifically 100*(compound−negative control)/(positive control−negative control). Dose response curves were fitted to the compound percent effect data using a 4-parameter logistic fit model. Data was reported as EC50 and Emax, with the Emax as the maximum asymptote of the fitted dose response curve.

For `COCc1cc(C)c2c(n1)CN(C(=O)CC1CN(c3ccnc(C(F)F)c3)C1)C2` [Example 50, 2-{1-[2-(difluoromethyl)pyridin-4-yl]azetidin-3-yl}-1-[2-(methoxymethyl)-4-methyl-5,7-dihydro-6H-pyrrolo[3,4-b]pyridin-6-yl]ethanone], the Emax stood at 99.2% and the pEC50 (in general, −log10 of the EC50, conventionally taken in molar units) is 7.84.

For the compound `COCc1nc2c(c(C)c1Cl)CN(C(=O)CC1CN(c3ccnc(OC(F)F)c3)C1)C2` [Example 52, 1-[3-chloro-2-(methoxymethyl)-4-methyl-5,7-dihydro-6H-pyrrolo[3,4-b]pyridin-6-yl]-2-{1-[2-(difluoromethoxy)pyridin-4-yl]azetidin-3-yl}ethanone], the Emax was found to be 111% and the pEC50 was 8.33.

`Cc1c(C(F)F)nc2c(c1C)CN(C(=O)CC1CN(c3ccnc(C(F)F)c3)C1)C2` [Example 53, 1-[2-(difluoromethyl)-3,4-dimethyl-5,7-dihydro-6H-pyrrolo[3,4-b]pyridin-6-yl]-2-{1-[2-(difluoromethyl)pyridin-4-yl]azetidin-3-yl}ethanone]: the Emax was determined as 104% and the pEC50 is 7.41.

With `Cc1cc(C)c2c(n1)CN(C(=O)CC1Cc3ccccc3C1)C2` [Example 56, 2-(2,3-dihydro-1H-inden-2-yl)-1-(2,4-dimethyl-5,7-dihydro-6H-pyrrolo[3,4-b]pyridin-6-yl)ethanone], the Emax was found to be 71.8% and the pEC50 is 6.68.

Take `Cc1cc(C)c2c(n1)CN(C(=O)OC1CN(c3nncs3)C1)C2` [Example 62, 1-(1,3,4-thiadiazol-2-yl)azetidin-3-yl 2,4-dimethyl-5,7-dihydro-6H-pyrrolo[3,4-b]pyridine-6-carboxylate]: the Emax was 47% and the pEC50 is 7.02.

Take `Cc1c(C(F)F)nc2c(c1C)CN(C(=O)OC1CN(c3ncns3)C1)C2` [Example 63, 1-(1,2,4-thiadiazol-5-yl)azetidin-3-yl 2-(difluoromethyl)-3,4-dimethyl-5,7-dihydro-6H-pyrrolo[3,4-b]pyridine-6-carboxylate]: the Emax came out at 51.8% and the pEC50 is 7.37.

For `Cc1nc2c(c(C)c1C)CN(C(=O)OC1CN(c3ncns3)C1)C2` [Example 64, 1-(1,2,4-thiadiazol-5-yl)azetidin-3-yl 2,3,4-trimethyl-5,7-dihydro-6H-pyrrolo[3,4-b]pyridine-6-carboxylate], the Emax is 88.5% and the pEC50 was 7.40.

For the compound `Cc1nc2c(c(C)c1C)CN(C(=O)OC1CN(c3nncs3)C1)C2` [Example 65, 1-(1,3,4-thiadiazol-2-yl)azetidin-3-yl 2,3,4-trimethyl-5,7-dihydro-6H-pyrrolo[3,4-b]pyridine-6-carboxylate], the Emax worked out at 88.2% and the negative logarithm of the EC50 (pEC50) was 7.20.

Take `COCc1nc2c(c(C)c1Cl)CN(C(=O)OC1CN(c3cccnc3)C1)C2` [Example 66, 1-(pyridin-3-yl)azetidin-3-yl 3-chloro-2-(methoxymethyl)-4-methyl-5,7-dihydro-6H-pyrrolo[3,4-b]pyridine-6-carboxylate]: the Emax worked out at 163% and the negative-log EC50 (pEC50) is 7.28.

Regarding `Cc1nc2c(c(C)c1Cl)CN(C(=O)OC1CN(c3ncns3)C1)C2` [Example 67, 1-(1,2,4-thiadiazol-5-yl)azetidin-3-yl 3-chloro-2,4-dimethyl-5,7-dihydro-6H-pyrrolo[3,4-b]pyridine-6-carboxylate], the Emax stood at 98.6% and the pEC50 was 7.73.

In the case of `Cc1cc(C)c2c(n1)CN(C(=O)CC1CN(c3ccc(C4(C)COC4)cc3)C1)C2` [Example 68, 1-(2,4-dimethyl-5,7-dihydro-6H-pyrrolo[3,4-b]pyridin-6-yl)-2-{1-[4-(3-methyloxetan-3-yl)phenyl]azetidin-3-yl}ethanone], the Emax was 99.4% and the pEC50 is 6.31.

For the origin of these results see patent US11905284B2, “5,7-dihydro-pyrrolo-pyridine derivatives” (PFIZER INC., priority 2016, dated 2024).
